# Positions of bridges follow the written chain, without caps; N, C: chain ends. Non-standard residues stand in square brackets, D forms with d. Residues, ends and D or L forms follow the SMILES beside them. Groups on a side chain read outwards from the residue. Chains are numbered I, II in the order given. *: point of attachment. X4 = CC(C)C[C@@H](NC(=O)CCCCCN)C(=O)NCCCC[C@@H](NC(=O)[C@@H](CC(C)C)NC(=O)CCCCCN)C(=O)*; Ahx = NCCCCCC(=O)O
# How the values were obtained:
# HEK293 cell line = format: cell-based; settings: 48 h
# Description: HEK 293 cell line were cultured and maintained in DMEM (Dulbeccos modified Eagle
# medium, Sigma Aldrich) supplemented with 10% FBS (Sigma Aldrich) and 1%
# penicillin/streptomycin. Cells were incubated in a humidified incubator at 37°C in the presence
# HEK 293 cell were seeded into 96 well plates at the density of 2 × 10^3 cells/well and incubated
# in DMEM containing 10% FBS for 10-14 hours at 37°C in the presence of 5% CO2. The next
# day, stock solution of compounds were prepared at concentration of 2 mg/mL in DMEM
# containing 10% FBS. 1/2 or 1/3 serial dilution of the peptide dendrimers from 2 mg/mL or 200
# µg/mL were performed in DMEM containing 10% FBS. The medium was removed from cell
# culture and replaced with the compounds at different concentration after washing with PBS.
# The cells were incubated in DMEM containing 10% FBS at 37°C in the presence of 5% CO 2.
# Negative control was untreated cell culture without compounds and blank control was wells
# without cell but only medium. After 48 hours, a final concentration of 10% AlamarBlue®
# (Thermo Fisher Scientific, Reinach, CH) was added to each well . The cells were incubated for
# 3-5 hours at 37°C with 5% CO 2. The fluorescence was then measured on a Tecan Infinite
# M1000 Pro plate reader at λex = 560 nm and λem = 590 nm. The value was normalized
# according to the untreated cells.
# E. coli W3110 = settings: for MIC at pH 5.0, E. coli W3110: W3110, pH 5; for MIC at pH 7.4, E. coli W3110: W3110, pH 7.4; for MIC at pH 8.0, E. coli W3110: W3110, pH 8
# A. baumannii ATCC 19606 = settings: for MIC at pH 5.0, A. baumannii ATCC 19606: ATCC 19606, pH 5; for MIC at pH 7.4, A. baumannii ATCC 19606: ATCC 19606, pH 7.4; for MIC at pH 8.0, A. baumannii ATCC 19606: ATCC 19606, pH 8
# P. aeruginosa PAO1 = settings: for MIC at pH 5.0, P. aeruginosa PAO1: PAO1, pH 5; for MIC at pH 7.4, P. aeruginosa PAO1: PAO1, pH 7.4; for MIC at pH 8.0, P. aeruginosa PAO1: PAO1, pH 8
# K. pneumoniae NCTC 418 = settings: for MIC at pH 5.0, K. pneumoniae NCTC 418: NCTC 418, pH 5; for MIC at pH 7.4, K. pneumoniae NCTC 418: NCTC 418, pH 7.4; for MIC at pH 8.0, K. pneumoniae NCTC 418: NCTC 418, pH 8
# [1] = test system: S aureus COL (methicillin-resistant Staphylococcus aureus); settings: for MIC at pH 5.0, S aureus COL: COL (methicillin-resistant, pH 5); for MIC at pH 7.4, S aureus COL: COL (methicillin-resistant, pH 7.4); for MIC at pH 8.0, S aureus COL: COL (methicillin-resistant, pH 8)
"MIC at pH 5.0, E. coli W3110 (E. coli W3110)","MIC at pH 7.4, E. coli W3110 (E. coli W3110)","MIC at pH 8.0, E. coli W3110 (E. coli W3110)","MIC at pH 5.0, A. baumannii ATCC 19606 (A. baumannii ATCC 19606)","MIC at pH 7.4, A. baumannii ATCC 19606 (A. baumannii ATCC 19606)","MIC at pH 8.0, A. baumannii ATCC 19606 (A. baumannii ATCC 19606)","MIC at pH 5.0, P. aeruginosa PAO1 (P. aeruginosa PAO1)","MIC at pH 7.4, P. aeruginosa PAO1 (P. aeruginosa PAO1)","MIC at pH 8.0, P. aeruginosa PAO1 (P. aeruginosa PAO1)","MIC at pH 5.0, K. pneumoniae NCTC 418 (K. pneumoniae NCTC 418)","MIC at pH 7.4, K. pneumoniae NCTC 418 (K. pneumoniae NCTC 418)","MIC at pH 8.0, K. pneumoniae NCTC 418 (K. pneumoniae NCTC 418)","MIC at pH 5.0, S aureus COL [1]","MIC at pH 7.4, S aureus COL [1]","MIC at pH 8.0, S aureus COL [1]",Structure (SMILES),IC50 HEK293 (HEK293 cell line)
4 μg/mL,8 μg/mL,4 μg/mL,4/4/4 μg/mL,4/4/4 μg/mL,4/4/4 μg/mL,32 μg/mL,8 μg/mL,16 μg/mL,64 μg/mL,16 μg/mL,16 μg/mL,> 64 μg/mL,16 μg/mL,4 μg/mL,CC(C)C[C@@H](NC(=O)CCCCCN)C(=O)NCCCC[C@@H](NC(=O)[C@@H](CC(C)C)NC(=O)CCCCCN)C(=O)N[C@H](CC(C)C)C(=O)NCCCC[C@@H](NC(=O)[C@@H](CC(C)C)NC(=O)[C@@H](CCCCNC(=O)[C@@H](CC(C)C)NC(=O)CCCCCN)NC(=O)[C@@H](CC(C)C)NC(=O)CCCCCN)C(=O)N[C@H](CCCCN)C(=O)N[C@H](CC(C)C)C(=O)N[C@H](CC(C)C)C(=O)NCCCC[C@@H](NC(=O)[C@@H](CC(C)C)NC(=O)[C@@H](CC(C)C)NC(=O)[C@@H](CCCCN)NC(=O)[C@@H](CCCCNC(=O)[C@@H](CC(C)C)NC(=O)[C@@H](CCCCNC(=O)[C@@H](CC(C)C)NC(=O)CCCCCN)NC(=O)[C@@H](CC(C)C)NC(=O)CCCCCN)NC(=O)[C@@H](CC(C)C)NC(=O)[C@@H](CCCCNC(=O)[C@@H](CC(C)C)NC(=O)CCCCCN)NC(=O)[C@@H](CC(C)C)NC(=O)CCCCCN)C(=O)N[C@H](CC(C)C)C(=O)N[C@H](CCCCN)C(=O)N[C@H](CCCCN)C(N)=O [D-aX22] (I: H-[Ahx][dL][dK]([dL-Ahx])[dL][dK]([dL-X4])[dK][dL][dL][dK][dL][dK][dK]-NH2 / II: H-[Ahx][dL][dK]([dL-Ahx])[dL][dK]([dL-X4])[dK][dL][dL]; amide I:9-II:C),17 ± 2 µg/mL
32 μg/mL,8 μg/mL,8 μg/mL,16 μg/mL,4 μg/mL,4 μg/mL,32 μg/mL,8 μg/mL,8 μg/mL,> 64 μg/mL,32 μg/mL,16 μg/mL,> 64 μg/mL,> 64 μg/mL,32 μg/mL,"CC(C)C[C@H](NC(=O)[C@H](CC(C)C)NC(=O)[C@H](CCCCN)NC(=O)[C@H](CCCCNC(=O)[C@H](CC(C)C)NC(=O)[C@H](CC(C)C)NC(=O)[C@H](CCCCNC(=O)[C@H](CC(C)C)NC(=O)[C@H](CCCCN)NC(=O)[C@H](CCCCNC(=O)[C@H](CC(C)C)NC(=O)[C@@H](N)CCCCN)NC(=O)[C@H](CC(C)C)NC(=O)[C@@H](N)CCCCN)NC(=O)[C@H](CC(C)C)NC(=O)[C@H](CCCCN)NC(=O)[C@H](CCCCNC(=O)[C@H](CC(C)C)NC(=O)[C@@H](N)CCCCN)NC(=O)[C@H](CC(C)C)NC(=O)[C@@H](N)CCCCN)NC(=O)[C@H](CC(C)C)NC(=O)[C@H](CC(C)C)NC(=O)[C@H](CCCCNC(=O)[C@H](CC(C)C)NC(=O)[C@H](CCCCN)NC(=O)[C@H](CCCCNC(=O)[C@H](CC(C)C)NC(=O)[C@@H](N)CCCCN)NC(=O)[C@H](CC(C)C)NC(=O)[C@@H](N)CCCCN)NC(=O)[C@H](CC(C)C)NC(=O)[C@H](CCCCN)NC(=O)[C@H](CCCCNC(=O)[C@H](CC(C)C)NC(=O)[C@@H](N)CCCCN)NC(=O)[C@H](CC(C)C)NC(=O)[C@@H](N)CCCCN)C(N)=O [L-T25, reference compound] (HELM PEPTIDE1{K.L.K.K.L.K.L.L.K.K.L.L.[am]}|PEPTIDE2{K.L}|PEPTIDE3{K.L.K.K.L.K.L.L}|PEPTIDE4{K.L}|PEPTIDE5{K.L.K.K.L}|PEPTIDE6{K.L}|PEPTIDE7{K.L.K.K.L}|PEPTIDE8{K.L}$PEPTIDE1,PEPTIDE2,3:R3-2:R2|PEPTIDE3,PEPTIDE4,3:R3-2:R2|PEPTIDE5,PEPTIDE6,3:R3-2:R2|PEPTIDE7,PEPTIDE8,3:R3-2:R2|PEPTIDE1,PEPTIDE7,6:R3-5:R2|PEPTIDE1,PEPTIDE3,9:R3-8:R2|PEPTIDE3,PEPTIDE5,6:R3-5:R2$$$V2.0)",92 ± 3 µg/mL
16/16/16 μg/mL,16/16/16 μg/mL,16/16/16 μg/mL,16 μg/mL,32 μg/mL,16 μg/mL,16 μg/mL,32 μg/mL,16 μg/mL,> 64 μg/mL,> 64 μg/mL,32 μg/mL,> 64 μg/mL,> 64 μg/mL,16 μg/mL,"CC(C)C[C@H](NC(=O)[C@H](CC(C)C)NC(=O)[C@H](CC(C)C)NC(=O)[C@H](CCCCNC(=O)[C@H](CC(C)C)NC(=O)[C@H](CC(C)C)NC(=O)[C@H](CCCCNC(=O)[C@H](CCCCN)NC(=O)[C@H](CC(C)C)NC(=O)[C@H](CCCCNC(=O)[C@H](CC(C)C)NC(=O)[C@@H](N)CCCCN)NC(=O)[C@H](CC(C)C)NC(=O)[C@@H](N)CCCCN)NC(=O)[C@H](CCCCN)NC(=O)[C@H](CC(C)C)NC(=O)[C@H](CCCCNC(=O)[C@H](CC(C)C)NC(=O)[C@@H](N)CCCCN)NC(=O)[C@H](CC(C)C)NC(=O)[C@@H](N)CCCCN)NC(=O)[C@H](CC(C)C)NC(=O)[C@H](CC(C)C)NC(=O)[C@H](CCCCNC(=O)[C@H](CCCCN)NC(=O)[C@H](CC(C)C)NC(=O)[C@H](CCCCNC(=O)[C@H](CC(C)C)NC(=O)[C@@H](N)CCCCN)NC(=O)[C@H](CC(C)C)NC(=O)[C@@H](N)CCCCN)NC(=O)[C@H](CCCCN)NC(=O)[C@H](CC(C)C)NC(=O)[C@H](CCCCNC(=O)[C@H](CC(C)C)NC(=O)[C@@H](N)CCCCN)NC(=O)[C@H](CC(C)C)NC(=O)[C@@H](N)CCCCN)C(N)=O [L-X18] (HELM PEPTIDE1{K.L.K.L.K.K.L.L.K.L.L.L.[am]}|PEPTIDE2{K.L}|PEPTIDE3{K.L.K.L.K.K.L.L}|PEPTIDE4{K.L}|PEPTIDE5{K.L.K.L.K}|PEPTIDE6{K.L}|PEPTIDE7{K.L.K.L.K}|PEPTIDE8{K.L}$PEPTIDE1,PEPTIDE2,3:R3-2:R2|PEPTIDE3,PEPTIDE4,3:R3-2:R2|PEPTIDE5,PEPTIDE6,3:R3-2:R2|PEPTIDE7,PEPTIDE8,3:R3-2:R2|PEPTIDE1,PEPTIDE7,6:R3-5:R2|PEPTIDE1,PEPTIDE3,9:R3-8:R2|PEPTIDE3,PEPTIDE5,6:R3-5:R2$$$V2.0)",52 ± 4 µg/mL

# From paper PMC9780108, “An intrinsically disordered antimicrobial peptide dendrimer from stereorandomized virtual screening” (Cell Reports. Physical Science, 2022)
